Laboratory results from ChEMBL document CHEMBL3217454, “Structureactivity relationship studies using peptide arrays: the example of HIV-1 Revintegrase interaction” (Medchemcomm, 2013).
Square brackets hold non-standard residues; d marks the D form. Peptide text beside a SMILES is read from it. NMeR = CN[C@@H](CCCNC(=N)N)C(=O)O; NMeV = CN[C@H](C(=O)O)C(C)C; NMeA = CN[C@@H](C)C(=O)O

Assays:
[1] = test system: Human immunodeficiency virus 1; assay: Binding affinity to HLT-tagged HIV-1 Rev measured after overnight incubation by chemiluminescence analysis relative to IN 174-188; parameters: concentration or dose not given beside the values
[2] = target: Human immunodeficiency virus type 1 integrase (Human immunodeficiency virus 1) (UniProt Q7ZJM1); assay: Binding affinity to HIV-1 integrase measured after overnight incubation by chemiluminescence analysis relative to IN 174-188; parameters: concentration or dose not given beside the values
Human immunodeficiency virus type 1 integrase (Human immunodeficiency virus 1), sequence (Q7ZJM1 as listed by the source): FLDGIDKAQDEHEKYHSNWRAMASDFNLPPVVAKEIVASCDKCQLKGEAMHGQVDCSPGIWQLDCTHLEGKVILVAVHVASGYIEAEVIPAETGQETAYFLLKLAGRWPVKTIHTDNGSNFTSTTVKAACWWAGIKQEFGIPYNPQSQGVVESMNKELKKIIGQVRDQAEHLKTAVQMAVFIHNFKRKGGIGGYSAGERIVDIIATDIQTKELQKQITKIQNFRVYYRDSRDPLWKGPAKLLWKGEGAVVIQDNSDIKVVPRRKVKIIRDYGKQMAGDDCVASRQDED

Compound	Activity [1] [%]	Activity [2] [%]
CC[C@H](C)[C@H](NC(=O)[C@H](Cc1ccccc1)NC(=O)[C@@H](NC(=O)[C@H](C)NC(=O)[C@H](CCSC)NC(=O)[C@H](CCC(N)=O)NC(=O)[C@@H](NC(=O)[C@H](C)NC(=O)[C@@H](N)[C@@H](C)O)C(C)C)C(C)C)C(=O)N[C@@H](Cc1cnc[nH]1)C(=O)N[C@@H](C)C(=O)N[C@@H](Cc1ccccc1)C(=O)N[C@@H](CCCCN)C(=O)N[C@@H](CCCNC(=N)N)C(=O)N[C@@H](CCCCN)C(=O)O (H-TAVQMAVFIHAFKRK-OH)	105	33
CC[C@H](C)[C@H](NC(=O)[C@H](Cc1ccccc1)NC(=O)[C@@H](NC(=O)[C@H](C)NC(=O)[C@H](CCSC)NC(=O)[C@H](CCC(N)=O)NC(=O)[C@@H](NC(=O)[C@H](C)N)C(C)C)C(C)C)C(=O)N[C@@H](Cc1cnc[nH]1)C(=O)N[C@@H](CC(N)=O)C(=O)N[C@@H](Cc1ccccc1)C(=O)N[C@@H](CCCCN)C(=O)N[C@@H](CCCNC(=N)N)C(=O)N[C@@H](CCCCN)C(=O)O (H-AVQMAVFIHNFKRK-OH)	141	99
CC[C@H](C)[C@H](NC(=O)[C@H](Cc1ccccc1)NC(=O)[C@H](C(C)C)N(C)C(=O)[C@H](C)NC(=O)[C@H](CCSC)NC(=O)[C@H](CCC(N)=O)NC(=O)[C@@H](NC(=O)[C@H](C)NC(=O)[C@@H](N)[C@@H](C)O)C(C)C)C(=O)N[C@@H](Cc1cnc[nH]1)C(=O)N[C@@H](CC(N)=O)C(=O)N[C@@H](Cc1ccccc1)C(=O)N[C@@H](CCCCN)C(=O)N[C@@H](CCCNC(=N)N)C(=O)N[C@@H](CCCCN)C(=O)O (H-TAVQMA[NMeV]FIHNFKRK-OH)	55	67
CC[C@H](C)[C@H](NC(=O)[C@H](Cc1ccccc1)NC(=O)[C@@H](NC(=O)[C@H](C)NC(=O)[C@H](CCSC)NC(=O)[C@H](CCC(N)=O)NC(=O)[C@@H](NC(=O)[C@H](C)NC(=O)[C@@H](N)[C@@H](C)O)C(C)C)C(C)C)C(=O)N[C@H](Cc1cnc[nH]1)C(=O)N[C@@H](CC(N)=O)C(=O)N[C@@H](Cc1ccccc1)C(=O)N[C@@H](CCCCN)C(=O)N[C@@H](CCCNC(=N)N)C(=O)N[C@@H](CCCCN)C(=O)O	105	105
CC[C@H](C)[C@H](NC(=O)[C@H](Cc1ccccc1)NC(=O)[C@@H](NC(=O)[C@H](C)N(C)C(=O)[C@H](CCSC)NC(=O)[C@H](CCC(N)=O)NC(=O)[C@@H](NC(=O)[C@H](C)NC(=O)[C@@H](N)[C@@H](C)O)C(C)C)C(C)C)C(=O)N[C@@H](Cc1cnc[nH]1)C(=O)N[C@@H](CC(N)=O)C(=O)N[C@@H](Cc1ccccc1)C(=O)N[C@@H](CCCCN)C(=O)N[C@@H](CCCNC(=N)N)C(=O)N[C@@H](CCCCN)C(=O)O (H-TAVQM[NMeA]VFIHNFKRK-OH)	66	99
CC[C@H](C)[C@H](NC(=O)[C@H](Cc1ccccc1)NC(=O)[C@@H](NC(=O)[C@H](C)NC(=O)[C@H](CCSC)NC(=O)[C@H](CCC(N)=O)NC(=O)[C@H](C)NC(=O)[C@H](C)NC(=O)[C@@H](N)[C@@H](C)O)C(C)C)C(=O)N[C@@H](Cc1cnc[nH]1)C(=O)N[C@@H](CC(N)=O)C(=O)N[C@@H](Cc1ccccc1)C(=O)N[C@@H](CCCCN)C(=O)N[C@@H](CCCNC(=N)N)C(=O)N[C@@H](CCCCN)C(=O)O (H-TAAQMAVFIHNFKRK-OH)	106	115
CC[C@H](C)[C@H](NC(=O)[C@H](Cc1ccccc1)NC(=O)[C@@H](NC(=O)[C@H](C)NC(=O)[C@H](CCSC)NC(=O)[C@H](CCC(N)=O)NC(=O)[C@@H](NC(=O)[C@H](C)NC(=O)[C@@H](N)[C@@H](C)O)C(C)C)C(C)C)C(=O)N[C@@H](Cc1cnc[nH]1)C(=O)N[C@@H](CC(N)=O)C(=O)O (H-TAVQMAVFIHN-OH)	0	0
CC[C@H](C)[C@H](NC(=O)[C@H](Cc1ccccc1)NC(=O)[C@@H](NC(=O)[C@H](C)NC(=O)[C@H](CCSC)NC(=O)[C@H](CCC(N)=O)NC(=O)[C@@H](NC(=O)[C@H](C)NC(=O)[C@H](C)N)C(C)C)C(C)C)C(=O)N[C@@H](Cc1cnc[nH]1)C(=O)N[C@@H](CC(N)=O)C(=O)N[C@@H](Cc1ccccc1)C(=O)N[C@@H](CCCCN)C(=O)N[C@@H](CCCNC(=N)N)C(=O)N[C@@H](CCCCN)C(=O)O (H-AAVQMAVFIHNFKRK-OH)	80	83
CC[C@H](C)[C@H](NC(=O)[C@H](Cc1ccccc1)NC(=O)[C@@H](NC(=O)[C@H](C)NC(=O)[C@H](CCSC)NC(=O)[C@H](CCC(N)=O)NC(=O)[C@@H](NC(=O)[C@H](C)NC(=O)[C@@H](N)[C@@H](C)O)C(C)C)C(C)C)C(=O)N[C@@H](Cc1cnc[nH]1)C(=O)N[C@@H](CC(N)=O)C(=O)N[C@@H](Cc1ccccc1)C(=O)N[C@@H](CCCCN)C(=O)N[C@@H](CCCNC(=N)N)C(=O)O (H-TAVQMAVFIHNFKR-OH)	114	87
CC[C@H](C)[C@H](NC(=O)[C@H](Cc1ccccc1)NC(=O)[C@@H](NC(=O)[C@H](C)NC(=O)[C@H](CCSC)NC(=O)[C@H](CCC(N)=O)NC(=O)[C@@H](NC(=O)[C@H](C)NC(=O)[C@@H](N)[C@@H](C)O)C(C)C)C(C)C)C(=O)N[C@@H](C)C(=O)N[C@@H](CC(N)=O)C(=O)N[C@@H](Cc1ccccc1)C(=O)N[C@@H](CCCCN)C(=O)N[C@@H](CCCNC(=N)N)C(=O)N[C@@H](CCCCN)C(=O)O (H-TAVQMAVFIANFKRK-OH)	121	122
CC[C@H](C)[C@H](NC(=O)[C@H](C)NC(=O)[C@@H](NC(=O)[C@H](C)NC(=O)[C@H](CCSC)NC(=O)[C@H](CCC(N)=O)NC(=O)[C@@H](NC(=O)[C@H](C)NC(=O)[C@@H](N)[C@@H](C)O)C(C)C)C(C)C)C(=O)N[C@@H](Cc1cnc[nH]1)C(=O)N[C@@H](CC(N)=O)C(=O)N[C@@H](Cc1ccccc1)C(=O)N[C@@H](CCCCN)C(=O)N[C@@H](CCCNC(=N)N)C(=O)N[C@@H](CCCCN)C(=O)O (H-TAVQMAVAIHNFKRK-OH)	216	104
CC[C@H](C)[C@H](NC(=O)[C@H](Cc1ccccc1)NC(=O)[C@@H](NC(=O)[C@@H](C)NC(=O)[C@H](CCSC)NC(=O)[C@H](CCC(N)=O)NC(=O)[C@@H](NC(=O)[C@H](C)NC(=O)[C@@H](N)[C@@H](C)O)C(C)C)C(C)C)C(=O)N[C@@H](Cc1cnc[nH]1)C(=O)N[C@@H](CC(N)=O)C(=O)N[C@@H](Cc1ccccc1)C(=O)N[C@@H](CCCCN)C(=O)N[C@@H](CCCNC(=N)N)C(=O)N[C@@H](CCCCN)C(=O)O	194	142
CC[C@H](C)[C@H](NC(=O)[C@H](Cc1ccccc1)NC(=O)[C@H](C)NC(=O)[C@H](C)NC(=O)[C@H](CCSC)NC(=O)[C@H](CCC(N)=O)NC(=O)[C@@H](NC(=O)[C@H](C)NC(=O)[C@@H](N)[C@@H](C)O)C(C)C)C(=O)N[C@@H](Cc1cnc[nH]1)C(=O)N[C@@H](CC(N)=O)C(=O)N[C@@H](Cc1ccccc1)C(=O)N[C@@H](CCCCN)C(=O)N[C@@H](CCCNC(=N)N)C(=O)N[C@@H](CCCCN)C(=O)O (H-TAVQMAAFIHNFKRK-OH)	222	123
CC[C@H](C)[C@H](NC(=O)[C@H](Cc1ccccc1)NC(=O)[C@@H](NC(=O)[C@H](C)NC(=O)[C@H](CCSC)NC(=O)[C@H](CCC(N)=O)NC(=O)[C@@H](NC(=O)[C@H](C)NC(=O)[C@@H](N)[C@@H](C)O)C(C)C)C(C)C)C(=O)N[C@@H](Cc1cnc[nH]1)C(=O)N[C@@H](CC(N)=O)C(=O)N[C@@H](Cc1ccccc1)C(=O)N[C@@H](CCCCN)C(=O)N(C)[C@@H](CCCNC(=N)N)C(=O)N[C@@H](CCCCN)C(=O)O (H-TAVQMAVFIHNFK[NMeR]K-OH)	75	123
CC[C@H](C)[C@@H](NC(=O)[C@H](Cc1ccccc1)NC(=O)[C@@H](NC(=O)[C@H](C)NC(=O)[C@H](CCSC)NC(=O)[C@H](CCC(N)=O)NC(=O)[C@@H](NC(=O)[C@H](C)NC(=O)[C@@H](N)[C@@H](C)O)C(C)C)C(C)C)C(=O)N[C@@H](Cc1cnc[nH]1)C(=O)N[C@@H](CC(N)=O)C(=O)N[C@@H](Cc1ccccc1)C(=O)N[C@@H](CCCCN)C(=O)N[C@@H](CCCNC(=N)N)C(=O)N[C@@H](CCCCN)C(=O)O	108	99
CC[C@H](C)[C@H](NC(=O)[C@H](Cc1ccccc1)NC(=O)[C@@H](NC(=O)[C@H](C)NC(=O)[C@H](CCSC)NC(=O)[C@H](CCC(N)=O)NC(=O)[C@@H](NC(=O)[C@@H](C)NC(=O)[C@@H](N)[C@@H](C)O)C(C)C)C(C)C)C(=O)N[C@@H](Cc1cnc[nH]1)C(=O)N[C@@H](CC(N)=O)C(=O)N[C@@H](Cc1ccccc1)C(=O)N[C@@H](CCCCN)C(=O)N[C@@H](CCCNC(=N)N)C(=O)N[C@@H](CCCCN)C(=O)O	209	105
CC[C@H](C)[C@H](NC(=O)[C@H](Cc1ccccc1)NC(=O)[C@@H](NC(=O)[C@H](C)NC(=O)[C@H](CCSC)NC(=O)[C@H](CCC(N)=O)NC(=O)[C@@H](NC(=O)[C@H](C)NC(=O)[C@@H](N)[C@@H](C)O)C(C)C)C(C)C)C(=O)N[C@@H](Cc1cnc[nH]1)C(=O)N[C@@H](CC(N)=O)C(=O)N[C@@H](Cc1ccccc1)C(=O)N[C@@H](CCCCN)C(=O)N[C@@H](CCCNC(=N)N)C(=O)N[C@@H](C)C(=O)O (H-TAVQMAVFIHNFKRA-OH)	209	109
CC[C@H](C)[C@H](NC(=O)[C@H](Cc1ccccc1)NC(=O)[C@@H](NC(=O)[C@H](C)NC(=O)[C@H](CCSC)NC(=O)[C@H](CCC(N)=O)NC(=O)[C@@H](NC(=O)[C@H](C)NC(=O)[C@@H](N)[C@@H](C)O)C(C)C)C(C)C)C(=O)N[C@@H](Cc1cnc[nH]1)C(=O)N[C@@H](CC(N)=O)C(=O)N[C@@H](Cc1ccccc1)C(=O)N[C@@H](CCCCN)C(=O)N[C@@H](CCCNC(=N)N)C(=O)N[C@H](CCCCN)C(=O)O	110	86
CC[C@H](C)[C@H](NC(=O)[C@H](Cc1ccccc1)NC(=O)[C@@H](NC(=O)[C@H](C)NC(=O)[C@H](CCSC)NC(=O)[C@H](C)NC(=O)[C@@H](NC(=O)[C@H](C)NC(=O)[C@@H](N)[C@@H](C)O)C(C)C)C(C)C)C(=O)N[C@@H](Cc1cnc[nH]1)C(=O)N[C@@H](CC(N)=O)C(=O)N[C@@H](Cc1ccccc1)C(=O)N[C@@H](CCCCN)C(=O)N[C@@H](CCCNC(=N)N)C(=O)N[C@@H](CCCCN)C(=O)O (H-TAVAMAVFIHNFKRK-OH)	79	83
